Experimental findings from US20200339953A1, “HEMATOPOIETIC STEM AND PROGENITOR CELL THERAPY” (priority 2010, published 2020) are described below.

Test [1] deals with CD34^+ cells. The test is described as follows: Competitive cAMP assay (LANCE cAMP detection kit). The test is classed as cell-based, human. How it is done: The cAMP assay was performed on CD34^+ cells using the LANCE® cAMP detection kit (Perkin Elmer Inc., Waltham, Mass.) according to the manufacturer's instructions. Briefly, 3,000 CD34^+ cells (Stem Cell Technologies, Vancouver, Canada) were aliquoted in each well of a 384-well opaque white plate in the recommended stimulation buffer. Assays were performed in triplicate for all conditions.
CD34^+ cells were placed on ice prior to being stimulated with DMSO or 16,16-dimethyl PGE2 at 4° C. For assays conducted at other temperatures, e.g., 25° C. or 37° C., DMSO or 16,16-dimethyl PGE2 was added to CD34^+ cells at room temperature and then the plates were incubated with DMSO or 16,16-dmPGE2 at the experimental temperature (25° C. or 37° C.).
CD34^+ cells were incubated for periods of 5, 15, 30, 60 or 120 minutes. Following the incubation period, detection buffer was added to the stimulated cells and cells were incubated for an additional 1 hour at room temperature in detection buffer, regardless of stimulation temperature. The assay plates were analyzed using an EnVision® 2104 Multilabel Reader (Perkin Elmer) according to the manufacturer's instructions.
A competitive cAMP assay was performed using CD34^+ cells to determine the effects of time (incubation for 15, 30, 60, or 120 minutes), temperature (incubation at 4° C., 25° C., or 37° C.), and final 16,16-dimethyl PGE2 concentration (1 μM, 10 μM, 50 μM, or 100 μM) on cAMP production in the cells.
(In general: Changes in cAMP serve as a functional read-out for many G protein-coupled receptors.)

The subject of test [2] is Human umbilical cord blood cells; Lin(−)CD34^+ cells isolated after treatment. The test is described as follows: Gene expression arrays after treatment of whole cord blood. The class given is cell-based. The protocol: Further experiments were performed to determine if CD34^+ cells responded to 16,16-dimethyl PGE2 when cells were treated in the context of a whole cord blood clinical treatment protocol. Human umbilical cord blood cells were incubated for 120 minutes at 37° C. with vehicle or 10 μM 16,16-dimethyl PGE2 (See FIGS. 17A-17D). After the incubation, Lin(−) CD34^+ cells were isolated using Miltenyi magnetic sorting. Biotin-labeled aRNA was prepared from the cells, and gene expression profiles were analyzed. […]
These experiments were repeated using human whole cord blood cells to determine if the CD34^+ expression results can be translated to the clinical setting. […] After the incubation, Lin(−)CD34^+ cells were isolated, labeled aRNA was prepared from the cells, and gene expression profiles were analyzed. […]
After treatment, the cells were washed with LMD/5% HSA medium, centrifuged for 10 minutes at 650× g at room temperature and resuspended in a cold selection buffer (phosphate buffered saline (PBS) with no Ca^+ or Mg^+; 2 mM EDTA; and 0.5% HSA). […] Once the Lin-CD34^+ cells were isolated from the treated whole cord blood, an aliquot was analyzed by flow cytometry to assess purity. […]

Molecules are shown by their SMILES.

With `CCCCC(C)(C)[C@H](O)/C=C/[C@H]1[C@H](O)CC(=O)[C@@H]1C/C=C\CCCC(=O)O` [16,16-dimethyl PGE2], in test [1] (4° C., 1, 10, 50 and 100 μM, p>0.05), the “cAMP production compared to DMSO controls” value is on record as “No statistically significant increase”. Further, the “time in which the cAMP response reached maximal levels” value in test [1] (37° C.) turned out to be 15 min. Also, in test [1] (37° C. and 25° C., 5 min up to 2 hours, 1, 10, 50 and 100 μM, p<0.001), the “cAMP activity compared to DMSO control” value is “statistically significant increase”. In addition, the “threshold concentration above which the cAMP response was relatively dose-insensitive” value in test [1] (CD34+ cells) was 10 µM. In addition, in test [1] (CD34+ cells, FIG. 3), the “incubation time of maximal cAMP response” value was in the range of 30 to 60 min. For the same compound, the “response of whole cord blood (more than 99% Lineage+ cells)” value in test [2] (10 μM, 37° C., 2 hours, FIGS. 17A-17D) is “did not respond to 16,16-dimethyl PGE2 in a similar manner”. In addition, in test [2] (whole cord blood treated 120 minutes at 37° C., Lin(−)CD34+ cells isolated), the “concentration giving the maximal gene expression signature” value was determined as 10 µM.
